# Key:
# Format in all cases: functional, Mus musculus
# J774.A1 [1] = test: Percent inhibition of nitrite release in lipopolysaccharide (LPS) treated J774.A1 macrophage cell lines at concentration of 1E-5M
# J774.A1 [2] = test: Percent inhibition of nitrite release in lipopolysaccharide (LPS) treated J774.A1 macrophage cell lines at concentration of 1E-3 M
# J774.A1 [3] = test: Percent inhibition of nitrite release in lipopolysaccharide (LPS) treated J774.A1 macrophage cell lines at concentration of 1E-6M
# J774.A1 [4] = test: Percent inhibition of nitrite release in lipopolysaccharide (LPS) treated J774.A1 macrophage cell lines at concentration of 1E-8M
# J774.A1 [5] = test: Percent inhibition of nitrite release in lipopolysaccharide (LPS) treated J774.A1 macrophage cell lines at concentration of 1E-7M
SMILES,Inhibition (J774.A1 [1]),Inhibition (J774.A1 [2]),Inhibition (J774.A1 [3]),Inhibition (J774.A1 [4]),Inhibition (J774.A1 [5])
CN/C(=N\c1cccc(F)c1)SC,9.34%,66.9%,5.23%,,
CCCS/C(=N\C)Nc1ccc(Cl)cc1,5.08%,50.04%,1.1%,,
C/N=C(/Nc1ccc(Cl)cc1)SC(C)C,7.09%,48.09%,8.21%,,
CN/C(=N\c1cccc(C)c1)SC,15.34%,75%,7.03%,,
CCS/C(=N\C)Nc1cccc(C)c1,14.02%,81.03%,6.79%,,
CCCS/C(=N\C)Nc1ccccc1,15.7%,65.78%,4.65%,,
CCS/C(=N\C)Nc1ccccc1F,9.76%,40.01%,3.02%,,
CCS/C(=N\C)Nc1cccc(Cl)c1,11.56%,41.56%,3.44%,,
CCCS/C(=N\C)Nc1ccccc1F,11.26%,65.61%,4.15%,,
CCCS/C(=N\C)Nc1ccc(C)cc1,2.08%,83.42%,1.54%,,
CCS/C(=N\C)Nc1ccccc1Cl,10.21%,19.55%,2.9%,,
CN/C(=N\c1ccccc1)SC,8.65%,65%,5.1%,,
CCCS/C(=N\C)Nc1ccc(F)cc1,10.67%,53.45%,4%,,
C/N=C(/Nc1ccc(F)cc1)SC(C)C,9.03%,61.45%,4.76%,,
CN/C(=N\c1ccc(C)cc1)SC,18.1%,67.8%,4.67%,,
CCS/C(=N\C)Nc1ccc(C)cc1,0%,56.82%,0%,,
C/N=C(/Nc1ccccc1C)SC(C)C,18.78%,85.21%,13.56%,,
CN/C(=N\c1cccc(Cl)c1)SC,12.33%,45.38%,4.06%,,
CCS/C(=N\C)Nc1ccccc1,2.67%,76.76%,1.67%,,
CCS/C(=N\C)NCc1ccccc1,-26.84%,,-23.65%,-7.28%,-2.41%
C/N=C(/Nc1cccc(Cl)c1)SC(C)C,8%,46.9%,7.09%,,
CN/C(=N\c1ccccc1C)SC,17.45%,75.1%,8.32%,,

SMILES,Inhibition (J774.A1 [1]),Inhibition (J774.A1 [2]),Inhibition (J774.A1 [3]),Inhibition (J774.A1 [4]),Inhibition (J774.A1 [5])
C/N=C(/Nc1cccc(F)c1)SC(C)C,10.04%,66.98%,4.23%,,
CCCS/C(=N\C)Nc1cccc(C)c1,12.09%,78.34%,8.31%,,
CN/C(=N\c1ccccc1F)SC,6.01%,52.45%,1.56%,,
CCCS/C(=N\C)Nc1cccc(Cl)c1,9.34%,58.45%,5.01%,,
C/N=C(/Nc1cccc(C)c1)SC(C)C,18.55%,68.77%,19.89%,,
CCS/C(=N\C)Nc1ccccc1C,15.33%,65.21%,7.44%,,
CCCS/C(=N\C)Nc1ccccc1C,11.45%,81.01%,8.12%,,
C/N=C(/Nc1ccccc1Cl)SC(C)C,8.69%,16.21%,3.21%,,
CCCS/C(=N\C)NCc1ccccc1,-39.58%,,-33.71%,-7.96%,-31.36%
CCCS/C(=N\C)Nc1ccccc1Cl,9.55%,11.45%,1.1%,,
C/N=C(/Nc1ccccc1F)SC(C)C,9.91%,67.71%,2.76%,,
C/N=C(/Nc1ccccc1)SC(C)C,19.75%,81.5%,13.21%,,
CN/C(=N/Cc1ccccc1)SC,-54.53%,,-9.54%,-2.65%,-5.96%
C/N=C(/Nc1ccc(C)cc1)SC(C)C,28.11%,73.14%,39.8%,,
CCS/C(=N\C)Nc1ccc(F)cc1,9.45%,60.56%,5.98%,,
CN/C(=N\c1ccc(Cl)cc1)SC,7.55%,69.05%,2.9%,,
CCCS/C(=N\C)Nc1cccc(F)c1,11.11%,53.91%,7%,,
CN/C(=N\c1ccccc1Cl)SC,4.67%,21.32%,2.9%,,
CCS/C(=N\C)Nc1ccc(Cl)cc1,10.45%,54.05%,0.5%,,
CCS/C(=N\C)Nc1cccc(F)c1,10.21%,59.45%,6.23%,,
COC(=O)[C@@H](N)CCCNC(=N)N[N+](=O)[O-] [L-NAME],20.37%,69.49%,12.8%,,

# From ChEMBL document CHEMBL1144266, “Synthesis and biological evaluation of 3-benzyl-1-methyl- and 1-methyl-3-phenyl-isothioureas as potential inhibitors of iNOS” (2005)
